Measurements as given in PubChem BioAssay AID1259411 (Chemical Carcinogenesis Research Information System (CCRIS), 2018).
Calls of active or inactive are those of the source. How the calls were made is not given here.

System: rodent carcinogenicity bioassays, tumor incidence
Experiment: CCRIS carcinogenicity studies
In short: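 NCI-built, expert-reviewed records of carcinogenicity and related test outcomes (mutagenicity, tumor promotion/inhibition) compiled from published and report sources, historical span 1985-2011, not updated.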

## COC(=O)C1=C(C)NC(C)=C(C(=O)OCCc2ccc(N3CCN(C(c4ccccc4)c4ccccc4)CC3)cc2)C1c1cccc([N+](=O)[O-])c1 (stereo unspecified)
Species: MOUSE, Strain/Sex: B6C3F1/FEMALE, Route: ORAL, Dose: 0, 30, 90, 300 PPM IN DIET FOR 18 MO (STUDY DURATION: 18 MO), Dose: 0, 30, 90, 300 PPM IN DIET FOR 18 MO (STUDY DURATION: 18 MO)
  carcinogen call: inactive; negative
Species: MOUSE, Strain/Sex: B6C3F1/MALE, Route: ORAL, Dose: 0, 30, 90, 300 PPM IN DIET FOR 18 MO (STUDY DURATION: 18 MO), Dose: 0, 30, 90, 300 PPM IN DIET FOR 18 MO (STUDY DURATION: 18 MO)
  carcinogen call: inactive; negative
Species: RAT, Strain/Sex: F344/FEMALE, Route: ORAL, Dose: 0, 30, 90, 300 PPM IN DIET FOR 24 MO (STUDY DURATION: 24 MO), Dose: 0, 30, 90, 300 PPM IN DIET FOR 24 MO (STUDY DURATION: 24 MO)
  carcinogen call: inactive; negative
Species: RAT, Strain/Sex: F344/MALE, Route: ORAL, Dose: 0, 30, 90, 300 PPM IN DIET FOR 24 MO (STUDY DURATION: 24 MO), Dose: 0, 30, 90, 300 PPM IN DIET FOR 24 MO (STUDY DURATION: 24 MO)
  carcinogen call: inactive; negative

## CCc1cc(C(N)=S)ccn1
Species: MOUSE, Route: ORAL, Tumor Site: Type of Lesion: THYROID GLAND
  carcinogen call: active; positive
Species: MOUSE, Strain/Sex: B6C3F1/FEMALE, Route: ORAL, Dose: 0, 1000, 2000 PPM IN DIET, Dose: 0, 1000, 2000 PPM IN DIET
  carcinogen call: inactive; negative
Species: MOUSE, Strain/Sex: B6C3F1/MALE, Route: ORAL, Dose: 0, 1000, 2000 PPM IN DIET, Dose: 0, 1000, 2000 PPM IN DIET
  carcinogen call: inactive; negative
Species: RAT, Strain/Sex: F344/FEMALE, Route: ORAL, Dose: 0, 1500, 3000 PPM IN DIET, Dose: 0, 1500, 3000 PPM IN DIET
  carcinogen call: inactive; negative
Species: RAT, Strain/Sex: F344/MALE, Route: ORAL, Dose: 0, 1500, 3000 PPM IN DIET, Dose: 0, 1500, 3000 PPM IN DIET
  carcinogen call: inactive; negative

## O=C1c2ccccc2C(=O)c2c(O)c(O)cc(O)c21
Species: RAT, Strain/Sex: F344/MALE, Route: ORAL, Dose: 0, 1% IN DIET FOR 520 D (STUDY DURATION: 520 D), Tumor Site: Type of Lesion: URINARY BLADDER: CARCINOMA
  carcinogen call: active; positive

## O=c1c(O)c(-c2ccc(O)c(O)c2)oc2cc(O)cc(O)c12
Species: RAT, Strain/Sex: F344/FEMALE, Route: ORAL, Dose: 0, 0.1, 0.2% IN DIET FOR DURATION OF STUDY (STUDY DURATION: 64 WK), Dose: 0, 0.1, 0.2% IN DIET FOR DURATION OF STUDY (STUDY DURATION: 64 WK)
  carcinogen call: inactive; negative
Species: RAT, Strain/Sex: F344/FEMALE, Route: ORAL, Dose: 0, 1.25, 5.0% IN DIET FOR 104 WK (STUDY DURATION: 112 WK), Dose: 0, 1.25, 5.0% IN DIET FOR 104 WK (STUDY DURATION: 112 WK)
  carcinogen call: inactive; negative
Species: RAT, Strain/Sex: F344/FEMALE, Route: ORAL, Dose: 0, 1,000, 10,000, 40,000 PPM IN DIET FOR 104 WK (STUDY DURATION: 104 WK), Dose: 0, 1,000, 10,000, 40,000 PPM IN DIET FOR 104 WK (STUDY DURATION: 104 WK)
  carcinogen call: inactive; negative
Species: RAT, Strain/Sex: F344/MALE, Route: ORAL, Dose: 0, 0.1, 0.2% IN DIET FOR DURATION OF STUDY (STUDY DURATION: 64 WK), Dose: 0, 0.1, 0.2% IN DIET FOR DURATION OF STUDY (STUDY DURATION: 64 WK)
  carcinogen call: inactive; negative
Species: RAT, Strain/Sex: F344/MALE, Route: ORAL, Dose: 0, 1.25, 5.0% IN DIET FOR 104 WK (STUDY DURATION: 112 WK), Dose: 0, 1.25, 5.0% IN DIET FOR 104 WK (STUDY DURATION: 112 WK)
  carcinogen call: inactive; negative
Species: RAT, Strain/Sex: F344/MALE, Route: ORAL, Dose: 0, 1,000, 10,000, 40,000 PPM IN DIET FOR 104 WK (STUDY DURATION: 104 WK), Dose: 0, 1,000, 10,000, 40,000 PPM IN DIET FOR 104 WK (STUDY DURATION: 104 WK), Tumor Site: Type of Lesion: KIDNEY (RENAL TUBULE): ADENOMA
  carcinogen call: active; positive

## ClC(Cl)(Cl)C(Cl)(Cl)Cl
Species: MOUSE, Strain/Sex: B6C3F1/FEMALE, Route: GAVAGE, Dose: 0, 590, 1179 MG/KG, TWA, Dose: 0, 590, 1179 MG/KG, TWA, Tumor Site: Type of Lesion: LIVER: HEPATOCELLULAR CARCINOMA
  carcinogen call: active; positive
Species: MOUSE, Strain/Sex: B6C3F1/MALE, Route: GAVAGE, Dose: 0, 590, 1179 MG/KG, TWA, Dose: 0, 590, 1179 MG/KG, TWA, Tumor Site: Type of Lesion: LIVER: HEPATOCELLULAR CARCINOMA
  carcinogen call: active; positive
Species: RAT, Strain/Sex: F344/F, Route: GAVAGE, Dose: 0, 80, 160 MG/KG IN CORN OIL 5D/WK FOR 103 WK (STUDY DURATION: 105 WK), Dose: 0, 80, 160 MG/KG IN CORN OIL 5D/WK FOR 103 WK (STUDY DURATION: 105 WK)
  carcinogen call: inactive; negative
Species: RAT, Strain/Sex: F344/M, Route: GAVAGE, Dose: 0, 10, 20 MG/KG IN CORN OIL 5D/WK FOR 103 WK (STUDY DURATION: 105 WK), Dose: 0, 10, 20 MG/KG IN CORN OIL 5D/WK FOR 103 WK (STUDY DURATION: 105 WK), Tumor Site: Type of Lesion: ADRENAL MEDULLA: PHEOCHROMOCYTOMA, ADRENAL MEDULLA: PHEOCHROMOCYTOMA, BENIGN, COMPLEX OR MALIGNANT, KIDNEY: RENAL TUBULE, Tumor Site: Type of Lesion: ADRENAL MEDULLA: PHEOCHROMOCYTOMA, ADRENAL MEDULLA: PHEOCHROMOCYTOMA, BENIGN, COMPLEX OR MALIGNANT, KIDNEY: RENAL TUBULE
  carcinogen call: active; positive
Species: RAT, Strain/Sex: OSBORNE-MENDEL/FEMALE, Route: GAVAGE, Dose: 0, 212, 423 MG/KG, TWA FOR 44 WK, Dose: 0, 212, 423 MG/KG, TWA FOR 44 WK
  carcinogen call: inactive; negative
Species: RAT, Strain/Sex: OSBORNE-MENDEL/MALE, Route: GAVAGE, Dose: 0, 212, 423 MG/KG, TWA FOR 44 WK, Dose: 0, 212, 423 MG/KG, TWA FOR 44 WK
  carcinogen call: inactive; negative

## OC1c2ccc3cc4ccccc4nc3c2C2OC2C1O (stereo unspecified)
Species: MOUSE, Strain/Sex: SWISS/FEMALE, Route: INTRAPERITONEAL, Dose: 0, 0.5 UMOL GIVEN AS 70 NMOL IN 5 µL DMSO WITHIN 24 HR OF BIRTH, 140 NMOL IN 10 µL DMSO ON D 8 OF LIFE, AND 280 NMOL IN, Tumor Site: Type of Lesion: LUNG: ADENOMA
  carcinogen call: active; positive
Species: MOUSE, Strain/Sex: SWISS/FEMALE, Route: INTRAPERITONEAL, Dose: 0, 1.05 UMOL GIVEN AS 150 NMOL IN 5 µL DMSO WITHIN 24 HR OF BIRTH, 300 NMOL IN 10 µL DMSO ON D 8 OF LIFE, AND 600 NMOL I, Tumor Site: Type of Lesion: LUNG: ADENOMA
  carcinogen call: active; positive
Species: MOUSE, Strain/Sex: SWISS/MALE, Route: INTRAPERITONEAL, Dose: 0, 0.5 UMOL GIVEN AS 70 NMOL IN 5 µL DMSO WITHIN 24 HR OF BIRTH, 140 NMOL IN 10 µL DMSO ON D 8 OF LIFE, AND 280 NMOL IN, Tumor Site: Type of Lesion: LUNG: ADENOMA, LIVER: NEOPLASTIC NODULE
  carcinogen call: active; positive
Species: MOUSE, Strain/Sex: SWISS/MALE, Route: INTRAPERITONEAL, Dose: 0, 1.05 UMOL GIVEN AS 150 NMOL IN 5 µL DMSO WITHIN 24 HR OF BIRTH, 300 NMOL IN 10 µL DMSO ON D 8 OF LIFE, AND 600 NMOL I, Tumor Site: Type of Lesion: LUNG: ADENOMA, LIVER: NEOPLASTIC NODULE
  carcinogen call: active; positive

## CCC1(c2ccccc2)C(=O)N=C(O)NC1=O (stereo unspecified)
Species: MOUSE, Route: ORAL, Tumor Site: Type of Lesion: LIVER
  carcinogen call: active; positive
Species: MOUSE, Strain/Sex: C3H/HE/MALE, Route: ORAL, Dose: 0, 85 MG/KG/D IN DIET FOR DURATION OF STUDY (STUDY DURATION: 91 WK)
  carcinogen call: inactive; negative
Species: MOUSE, Strain/Sex: C57BL/MALE, Route: ORAL, Dose: 0, 85 MG/KG/D IN DIET FOR DURATION OF STUDY (STUDY DURATION: 100 WK)
  carcinogen call: inactive; negative
Species: RAT, Route: ORAL, Tumor Site: Type of Lesion: LIVER
  carcinogen call: active; positive
Species: RAT, Strain/Sex: F344/MALE, Route: ORAL, Dose: 0, 8, 30, 125, 500 PPM IN DIET FOR 104 WK (STUDY DURATION: 104 WK), Dose: 0, 8, 30, 125, 500 PPM IN DIET FOR 104 WK (STUDY DURATION: 104 WK)
  carcinogen call: inactive; negative
